Reference: patent EP0070133B1, “Secondary phenylethanol amines, processes for their preparation and their pharmaceutical application” (priority 1981, dated 1983)
Structures can show the parent of a compound that is named as a salt. Where two headings read alike, the source gives them in different places.

Tests used:
Female CFLP mice [1] = assay: Anti-hyperglycaemic activity: subcutaneous glucose load in fasted mice, area under blood glucose curve; assay type: in vivo; details: 1 μ moles/kg po, glucose 1 g/kg sc, 2 hour period, vs water control
Protocol: Female CFLP mice, each weighing approximately 25 g, were fasted for 24 hours prior to the study. The compounds under study were administered orally as an aqueous solution to each of 6 mice. 6 mice were given water as a control. 30 minutes later a blood sample (20 µl) was obtained from the tail for the analysis of blood glucose. Immediately after taking this blood sample, glucose (1 g/kg body weight) was administered subcutaneously to each mouse. Blood samples were then obtained from each mouse at 30 minute intervals for 120 minutes.
Compounds that produced a significant (P<0.05) reduction of blood glucose, compared with control mice given water, at any time interval, were considered active. The area under the blood glucose curve over the 2 hour period after the administration of the glucose was calculated for each compound and compared with the value for control animals.

Female CFLP mice [2] = assay: Effect on energy expenditure and food intake of mice; assay type: in vivo; details: Mus musculus, po, 21 h
Protocol: Female CFLP mice each weighing approximately 24 g, were given food and water ad lib before and during the experiment. The compounds were dissolved in water by addition of one mole of hydrochloric acid per mole of compound and these solutions were administered orally to each of 12 mice. A further 12 mice were dosed orally with water. The mice were placed in boxes through which air was drawn and the oxygen content of the air leaving the boxes was measured. […] The food intake of the mice was measured over this same period of 21 hours. The results are expressed as a percentage of the mean food intake or rate of energy expenditure of the mice dosed with water.

[3] = test system: platelet aggregation in human whole blood; assay: Collagen-induced platelet aggregation in human whole blood in vitro; assay type: cell-based; details: Final Concentration in Whole Blood 100 μM; collagen EC50 in presence of compound divided by control EC50
Protocol: Collagen-induced platelet aggregation in human whole blood in vitro.
Collagen added to stirred citrated blood causes platelet aggregation. As the platelets aggregate, the concentration of single platelets falls. […] Inhibitors of aggregation, such as aspirin and dipyridamole, reduce the response to collagen.
Collagen (Hormon-Chemie, Munich) or 154 mM NaCl (control) was added to each aliquot of blood stirred at 1100 rpm in an aggregometer at 37° after 3 mins pre-incubation with compound or appropriate solvent. Aggregates were fixed by addition of 0.5 vol 4.5% formaldehyde or 0.05 vol phosphate-buffered glutaraldehyde. Single platelets were counted electronically. Responses, expressed as per cent fall in platelet count, were obtained to a range of collagen concentrations. The concentration producing 50% maximal effect (EC50) was estimated from log10 concentration-response curves. Dose-ratios were calculated by dividing the EC50 obtained in the presence of compound under test by the control EC50.

rat ear = assay: Anti-inflammatory activity: croton oil induced inflammation of the rat ear; assay type: in vivo; details: 1.35 mg/rat ear, topical in 1% croton oil in tetrahydrofuran, ear weight after 6 hours; active = significant (5% level) reduction
Protocol: The method used is based on that described by G. Tonelli eta/ (Endocrinology, 77, 625-634, 1965). An inflammation is induced in the rat ear by the application of 50 µl of a 1% solution of croton oil in tetrahydrofuran, test compounds being dissolved in the irritant vehicle. After 6 hours the inflammation is assessed by killing the animals and weighing the ears. Topical anti-inflammatory activity of a compound is generally considered to be shown when a significant (5% level) reduction in ear weight is seen compared to non-drug treated control.

CNCCOc1ccc(C[C@@H](C)NC[C@H](O)c2cccc(C(F)(F)F)c2)cc1 [Example 24, N-[2-(4-(2-Methylaminoethoxy)phenyl)-1-methylethyl]-2-hydroxy-2-(3-trifluoromethylphenyl)ethanamine dihydrochloride (RR,SS) diastereoisomer]
Reduction in area under Blood glucose curve (%) (Female CFLP mice [1]): 47% | response vs control in vivo at 6.6 mg/kg (Female CFLP mice [2]; read-out: Mean Energy Expenditure (%)): 139% | response vs control in vivo at 6.6 mg/kg (Female CFLP mice [2]; read-out: Mean Food Intake (%)): 102% | Dose-Ratio [3]: 5.9 | Activity (rat ear): Active
